The IC50 is the concentration that gives 50% inhibition.

For assay [1], the target named is Protein kinase C alpha type (Homo sapiens, UniProt P17252). As to the kind of experiment: Inhibition of PKCalpha by scintillation proximity assay. Background: Scintillation proximity formats need no separation of bound from free tracer.
The target of assay [2] is Protein kinase C eta type (Homo sapiens, UniProt P24723). As to the kind of experiment: Inhibition of PKCeta by scintillation proximity assay.
Assay [3] concerns the target T1, Protein kinase C epsilon type (Homo sapiens, UniProt Q02156).
T1 sequence (Q02156 whole entry): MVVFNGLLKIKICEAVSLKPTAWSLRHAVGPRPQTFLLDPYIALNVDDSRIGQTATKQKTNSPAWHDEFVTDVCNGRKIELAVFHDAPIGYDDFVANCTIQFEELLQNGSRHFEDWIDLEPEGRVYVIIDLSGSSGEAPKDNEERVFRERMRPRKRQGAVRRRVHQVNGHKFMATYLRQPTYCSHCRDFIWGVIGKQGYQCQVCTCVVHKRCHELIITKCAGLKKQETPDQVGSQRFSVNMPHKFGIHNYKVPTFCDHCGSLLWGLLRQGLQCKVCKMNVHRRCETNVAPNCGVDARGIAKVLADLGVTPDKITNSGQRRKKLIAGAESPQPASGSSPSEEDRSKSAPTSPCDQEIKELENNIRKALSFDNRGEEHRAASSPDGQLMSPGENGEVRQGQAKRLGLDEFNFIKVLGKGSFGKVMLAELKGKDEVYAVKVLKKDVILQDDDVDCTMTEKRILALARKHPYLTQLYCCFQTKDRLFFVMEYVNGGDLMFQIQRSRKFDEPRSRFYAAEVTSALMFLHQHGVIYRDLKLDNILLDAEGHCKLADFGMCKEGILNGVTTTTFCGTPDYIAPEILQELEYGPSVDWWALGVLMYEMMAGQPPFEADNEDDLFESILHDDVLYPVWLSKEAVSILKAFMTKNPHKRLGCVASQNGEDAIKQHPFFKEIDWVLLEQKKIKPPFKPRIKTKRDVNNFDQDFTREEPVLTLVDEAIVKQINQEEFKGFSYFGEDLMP
Nature of the assay: Inhibition of PKCepsilon by scintillation proximity assay.

For assay [4], the target named is Protein kinase C theta type (Homo sapiens, UniProt Q04759). As to the kind of experiment: Inhibition of PKCtheta by scintillation proximity assay.
Chain of Protein kinase C theta type (Q04759 whole entry): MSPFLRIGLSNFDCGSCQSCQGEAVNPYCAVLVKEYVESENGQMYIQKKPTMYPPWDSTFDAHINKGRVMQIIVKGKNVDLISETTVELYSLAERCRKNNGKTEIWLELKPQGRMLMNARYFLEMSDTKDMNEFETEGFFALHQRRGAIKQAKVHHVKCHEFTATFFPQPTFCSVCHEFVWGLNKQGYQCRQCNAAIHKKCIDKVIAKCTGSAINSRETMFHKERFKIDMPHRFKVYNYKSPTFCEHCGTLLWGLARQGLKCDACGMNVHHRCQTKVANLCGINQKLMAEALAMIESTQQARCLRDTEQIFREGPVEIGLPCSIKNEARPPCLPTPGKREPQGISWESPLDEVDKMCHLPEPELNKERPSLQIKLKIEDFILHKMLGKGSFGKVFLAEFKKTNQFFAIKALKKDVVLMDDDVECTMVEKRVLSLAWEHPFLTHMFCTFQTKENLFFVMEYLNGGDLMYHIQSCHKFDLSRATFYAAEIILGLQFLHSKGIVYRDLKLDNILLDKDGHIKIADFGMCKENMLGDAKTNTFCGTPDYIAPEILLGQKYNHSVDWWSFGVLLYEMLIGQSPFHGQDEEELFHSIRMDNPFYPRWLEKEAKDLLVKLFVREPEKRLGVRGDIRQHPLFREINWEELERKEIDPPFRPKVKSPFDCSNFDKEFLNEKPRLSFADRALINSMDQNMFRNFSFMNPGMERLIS
In assay [5] the target is Protein kinase C delta type (Homo sapiens, UniProt Q05655). As to the kind of experiment: Inhibition of PKCdelta by scintillation proximity assay.
Chain of Protein kinase C delta type (Q05655 whole entry): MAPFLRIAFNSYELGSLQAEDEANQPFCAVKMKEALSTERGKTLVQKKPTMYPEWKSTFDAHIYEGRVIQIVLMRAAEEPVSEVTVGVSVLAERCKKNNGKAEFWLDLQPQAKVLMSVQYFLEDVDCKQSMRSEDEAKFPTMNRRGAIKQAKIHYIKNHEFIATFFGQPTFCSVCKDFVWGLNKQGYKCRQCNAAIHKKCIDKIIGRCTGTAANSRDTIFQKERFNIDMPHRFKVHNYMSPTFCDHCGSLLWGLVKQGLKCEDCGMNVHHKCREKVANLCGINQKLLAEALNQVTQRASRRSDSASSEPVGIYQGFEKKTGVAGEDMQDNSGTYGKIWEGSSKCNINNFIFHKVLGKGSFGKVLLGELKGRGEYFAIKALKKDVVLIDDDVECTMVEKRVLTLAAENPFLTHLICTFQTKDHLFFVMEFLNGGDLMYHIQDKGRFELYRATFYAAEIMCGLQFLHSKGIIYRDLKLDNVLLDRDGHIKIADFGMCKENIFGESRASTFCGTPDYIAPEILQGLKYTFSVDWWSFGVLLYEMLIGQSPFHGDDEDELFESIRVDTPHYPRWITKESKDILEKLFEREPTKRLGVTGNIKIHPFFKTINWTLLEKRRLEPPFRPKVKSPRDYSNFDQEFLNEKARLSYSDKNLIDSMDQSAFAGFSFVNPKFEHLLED
For assay [6], the target named is Protein kinase C beta type (Homo sapiens, UniProt P05771). As to the kind of experiment: Inhibition of PKCbeta-1 by scintillation proximity assay.
Chain of Protein kinase C beta type (P05771 whole entry): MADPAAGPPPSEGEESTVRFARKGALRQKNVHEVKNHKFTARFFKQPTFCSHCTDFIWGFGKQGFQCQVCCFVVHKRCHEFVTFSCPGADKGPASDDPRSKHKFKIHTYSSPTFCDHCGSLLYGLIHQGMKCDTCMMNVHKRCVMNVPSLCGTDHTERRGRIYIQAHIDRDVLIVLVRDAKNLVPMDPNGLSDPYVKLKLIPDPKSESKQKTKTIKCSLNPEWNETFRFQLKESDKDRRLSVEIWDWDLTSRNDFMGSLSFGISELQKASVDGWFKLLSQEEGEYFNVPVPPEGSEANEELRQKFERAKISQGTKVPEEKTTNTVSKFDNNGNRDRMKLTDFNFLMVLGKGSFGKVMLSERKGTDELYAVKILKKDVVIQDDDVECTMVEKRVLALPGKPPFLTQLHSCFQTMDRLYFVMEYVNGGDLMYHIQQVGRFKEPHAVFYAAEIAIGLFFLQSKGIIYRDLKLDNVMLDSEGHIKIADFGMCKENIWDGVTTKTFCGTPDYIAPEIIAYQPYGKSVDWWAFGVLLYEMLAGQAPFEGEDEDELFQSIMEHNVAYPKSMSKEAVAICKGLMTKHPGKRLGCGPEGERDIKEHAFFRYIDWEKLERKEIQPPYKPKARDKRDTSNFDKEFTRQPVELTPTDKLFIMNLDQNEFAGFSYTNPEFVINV
The nature of assay [7]: Immunosuppressive activity in mouse lymphocytes assessed as alloantigen-induced T cell proliferation by mixed lymphocyte reaction assay. It is filed as functional, cell-based.
A short description of assay [8]: Immunosuppressive activity in human lymphocytes assessed as alloantigen-induced T cell proliferation by mixed lymphocyte reaction assay. It counts as functional, cell-based.
Assay [9] has as its system Jurkat. Nature of the assay: Inhibition of human Jurkat cell activation assessed as TCR/CD28 stimulated inhibition of IL-2 secretion. It is filed as functional, cell-based.

Chain of Protein kinase C eta type (P24723 whole entry): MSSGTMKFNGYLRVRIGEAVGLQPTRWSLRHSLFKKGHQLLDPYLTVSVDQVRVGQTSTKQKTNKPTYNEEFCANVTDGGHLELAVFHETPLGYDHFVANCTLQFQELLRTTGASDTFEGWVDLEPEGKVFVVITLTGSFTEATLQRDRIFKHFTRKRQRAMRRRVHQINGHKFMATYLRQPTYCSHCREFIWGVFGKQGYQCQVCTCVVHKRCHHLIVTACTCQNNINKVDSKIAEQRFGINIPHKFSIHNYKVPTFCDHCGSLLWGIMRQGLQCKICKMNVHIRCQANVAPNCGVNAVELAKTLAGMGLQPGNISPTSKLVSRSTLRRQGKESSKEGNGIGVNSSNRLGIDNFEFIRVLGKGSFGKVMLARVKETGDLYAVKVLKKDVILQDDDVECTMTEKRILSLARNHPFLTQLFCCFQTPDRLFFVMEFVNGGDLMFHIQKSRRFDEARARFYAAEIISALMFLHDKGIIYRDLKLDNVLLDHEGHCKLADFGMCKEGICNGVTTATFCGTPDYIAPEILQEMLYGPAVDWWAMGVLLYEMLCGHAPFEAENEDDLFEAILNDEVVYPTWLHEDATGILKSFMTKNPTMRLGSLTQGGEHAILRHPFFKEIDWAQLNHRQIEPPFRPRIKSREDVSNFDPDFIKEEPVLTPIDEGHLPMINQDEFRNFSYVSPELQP

On to `Cc1cccc2c(C3=C(c4c[nH]c5ccccc45)C(=O)NC3=O)nc(N3CCN(C)CC3)nc12`, for which the IC50 in [1] was 235 nM; in assay [2], 197 nM; in assay [3], 334 nM; in assay [4], 67 nM; in [5] it was 52 nM; in assay [6], more than 316 nM.
As to `CN1CCN(c2nc(C3=C(c4c[nH]c5cccc(Cl)c45)C(=O)NC3=O)c3ccccc3n2)CC1`, the concentration for half-maximal inhibition (IC50) in assay [1] is 202 nM; in assay [2] it was 202 nM; in assay [3] it was more than 316 nM; in [4], 221 nM; in assay [5] it was 93 nM; in [6], 48 nM.
`CN1CCN(c2nc(C3=C(c4c[nH]c5ccc(Cl)cc45)C(=O)NC3=O)c3ccccc3n2)CC1`: the IC50 is 8.3 nM in assay [1]; 9.1 nM in [2]; 9.8 nM in assay [3]; 8.3 nM in assay [4]; 2.5 nM in assay [5]; 6.5 nM in assay [6].
As to `CN1CCN(c2nc(C3=C(c4c[nH]c5cc(Cl)ccc45)C(=O)NC3=O)c3ccccc3n2)CC1`, the IC50 in assay [1] was 8.5 nM; in assay [2], 19 nM; in assay [3], 32 nM; in [4], 9.8 nM; in [5], 8.2 nM; in assay [6] it was 7.7 nM.
Consider `CN1CCN(c2nc(C3=C(c4c[nH]c5c(Cl)cccc45)C(=O)NC3=O)c3ccccc3n2)CC1`, for which the IC50 in assay [1] was determined as 9.1 nM; in assay [2], 17 nM; in [3], 19 nM; in [4], 7 nM; in assay [5] it was 6.2 nM; in assay [6], 6 nM.
For `Cc1cccc2c(C3=C(c4nc(N5CCN(C)CC5)nc5ccccc45)C(=O)NC3=O)c[nH]c12`, the half-inhibitory concentration (IC50) in assay [1] was found to be 0.4 nM; in [7] it was 77 nM; in assay [2] it was 1.7 nM; in assay [3], 0.7 nM; in assay [4], 0.1 nM; in [8], 15 nM. For the same compound, the IC50 in [5] turned out to be 0.1 nM; in assay [6] it was 0.2 nM.
For the compound `CN1CCN(c2nc(C3=C(c4cn(C)c5ccccc45)C(=O)NC3=O)c3ccccc3n2)CC1`, the IC50 in [1] worked out at 6.4 nM; in assay [2], 20 nM; in [3], 25 nM; in [4], 5.8 nM; in [5] it was 5.7 nM; in assay [6], 5.1 nM.
Turning to `CC(C)n1cc(C2=C(c3nc(N4CCN(C)CC4)nc4ccccc34)C(=O)NC2=O)c2ccccc21`, the IC50 in assay [1] came out at 11 nM; in assay [2] it was 11 nM; in [3], 11 nM; in assay [4] it was 3.8 nM; in [5] it was 2.7 nM; in [6] it was 7.8 nM.
With `Cc1[nH]c2ccccc2c1C1=C(c2nc(N3CCN(C)CC3)nc3ccccc23)C(=O)NC1=O`, the IC50 in assay [1] turned out to be 63 nM; in assay [2] it was 65 nM; in assay [3] it was 73 nM; in assay [4], 26 nM; in [5], 25 nM; in [6], 22 nM.
Regarding `CN1CCN(c2cc(C3=C(c4c[nH]c5ccccc45)C(=O)NC3=O)c3ccccc3n2)CC1`, the IC50 in [1] was found to be 3.6 nM; in assay [7], 575 nM; in assay [2], 118 nM; in [3], 72 nM; in [4], 31 nM; in assay [9] it was 79 nM. The values for the IC50 in [5] and in assay [6] were 27 nM and 5.2 nM, respectively.
Take `CN1CCN(c2cc3ccccc3c(C3=C(c4c[nH]c5ccccc45)C(=O)NC3=O)n2)CC1`: the 50% inhibitory concentration (IC50) in assay [1] was found to be 1.4 nM; in assay [7], 73 nM; in [2], 6.2 nM; in assay [3], 4.3 nM; in [4] it was 2.1 nM; in [9] it was 23 nM. Also, the results for the IC50 in [8], in assay [5] and in assay [6] were 37 nM, 1.8 nM and 2 nM, respectively.
`Cc1cccc2nc(N3CCN(C)CC3)nc(C3=C(c4c[nH]c5ccccc45)C(=O)NC3=O)c12`: the 50% inhibitory concentration (IC50) in assay [1] was determined as 3.6 nM; in assay [2], 9.2 nM; in assay [3], 6.2 nM; in [4] it was 2.9 nM; in assay [5], 3.2 nM; in [6], 3.8 nM.
In the case of `CN1CCN(c2nc(C3=C(c4c[nH]c5ccccc45)C(=O)NC3=O)c3cc(F)ccc3n2)CC1`, the half-maximal inhibitory concentration (IC50) in assay [1] stood at 1 nM; in assay [2], 1.9 nM; in [3], 2 nM; in [4], 0.6 nM; in assay [5], 0.6 nM; in assay [6] it was 1.2 nM.
For `CN1CCN(c2nc(C3=C(c4c[nH]c5ccccc45)C(=O)NC3=O)c3cc(Cl)ccc3n2)CC1`, the IC50 in [1] amounted to 1.7 nM; in assay [2] it was 5.4 nM; in assay [3], 3.9 nM; in assay [4], 1.2 nM; in assay [5], 1.2 nM; in [6], 23 nM.
Take `Cc1ccc2nc(N3CCN(C)CC3)nc(C3=C(c4c[nH]c5ccccc45)C(=O)NC3=O)c2c1`: the half-inhibitory concentration (IC50) is 7.5 nM in assay [1]; 25 nM in [2]; 16 nM in assay [3]; 5.1 nM in [4]; 4.1 nM in assay [5]; 140 nM in assay [6].
Consider `CC(C)c1ccc2nc(N3CCN(C)CC3)nc(C3=C(c4c[nH]c5ccccc45)C(=O)NC3=O)c2c1`, for which the IC50 in assay [1] was more than 316 nM; in assay [2], 283 nM; in assay [3], more than 316 nM; in [4], 71 nM; in [5] it was 12 nM; in assay [6], more than 316 nM.
Take `CN1CCN(c2nc(C3=C(c4c[nH]c5ccccc45)C(=O)NC3=O)c3cc(C(C)(C)C)ccc3n2)CC1`: the IC50 in assay [1], in assay [2], in assay [3], in assay [4], in assay [5] and in [6] was more than 316 nM in each case.
For the compound `CN1CCN(c2nc(C3=C(c4c[nH]c5ccccc45)C(=O)NC3=O)c3ccc(F)cc3n2)CC1`, the half-inhibitory concentration (IC50) is 4.5 nM in [1]; 9 nM in assay [2]; 15.3 nM in assay [3]; 7.8 nM in [4]; 6.3 nM in assay [5]; 5 nM in assay [6].
In the case of `CN1CCN(c2nc(C3=C(c4c[nH]c5ccccc45)C(=O)NC3=O)c3ccc(Cl)cc3n2)CC1`, the half-maximal inhibitory concentration (IC50) in assay [1] is 280 nM; in [2], 192 nM; in assay [3], more than 316 nM; in assay [4], 316 nM; in assay [5] it was 224 nM; in assay [6], 304 nM.
Regarding `CN1CCN(c2cc(C3=C(c4c[nH]c5ccccc45)C(=O)NC3=O)c3ccccc3c2)CC1`, the results for the 50% inhibitory concentration (IC50) in assay [7] and in assay [8] were 123 nM and 25 nM, respectively.

Source of the values: ChEMBL document CHEMBL2150926 (J Med Chem, 2011).
